# Assay results from article PMC10673995, “Discovery of a novel cardiac-specific myosin modulator using artificial intelligence-based virtual screening” (Nature Communications, 2023).
# Where “and” joins values, the source holds several entries; their conditions need not be identical. Equal entries are not always repeated.
# Key:
# [1] = tested on: isolated cardiac muscle fibers; settings: read-out: reported IC50 for force inhibition; cited from earlier work
# bovine cardiac myosin S1 = bovine cardiac myosin S1 (Bos taurus, UniProt Q9BE39); test: mant-ATP chase single nucleotide turnover, myosin S1; settings: for Representative Traces (mant-ATP chase, normalised signal): representative trace, sheet Figure 3a;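 for all read-outs here: 0.4 µM S1 preloaded with equimolar mant-ATP, chased by 2 mM ATP, mant fluorescence (ex 360, em 450 nm) read each second over 15 min at 25 °C, biexponential fit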
# Excerpt: In contrast to the isolated myosin motors, synthetic thick filaments contain two myosin head domains per molecule connected via their coiled-coil tail.
# Chase of mant-ATP loaded cardiac myosin S1 with ATP leads to a decrease in the mant fluorescence intensity which is best described by a bi-exponential decay function with an initial fast phase followed by a second slower phase, corresponding to the so-called disordered (DRX) and super-relaxed state (SRX) of myosin, respectively.
# Bovine myosin S1 and synthetic thick filament concentrations were adjusted to 0.4 μmol L^−1 with assay buffer and 40 μL aliquoted into individual wells of a black 384-well plate (Greiner). Mant-ATP (JenaBioscience) was added to each well to a final concentration of 0.4 μmol L^−1 using an automated injector unit in a ClarioStar Plate Reader (BMG LabTech) and the system was allowed to age for 1 min. The chase phase was started by adding a final concentration of 2 mmol L^−1 ATP using a second automated injector unit. Fluorescence intensity from each well was constantly measured for 15 min every 1 sec at 25 °C with the following settings: excitation at 360 nm with a 20 nm bandwidth and emission at 450 nm with a 20 nm bandwidth.
# [2] = Beta-cardiac myosin S1, individual replicates
# bovine cardiac myosin S1, sequence (Q9BE39 85-778 limits assumed): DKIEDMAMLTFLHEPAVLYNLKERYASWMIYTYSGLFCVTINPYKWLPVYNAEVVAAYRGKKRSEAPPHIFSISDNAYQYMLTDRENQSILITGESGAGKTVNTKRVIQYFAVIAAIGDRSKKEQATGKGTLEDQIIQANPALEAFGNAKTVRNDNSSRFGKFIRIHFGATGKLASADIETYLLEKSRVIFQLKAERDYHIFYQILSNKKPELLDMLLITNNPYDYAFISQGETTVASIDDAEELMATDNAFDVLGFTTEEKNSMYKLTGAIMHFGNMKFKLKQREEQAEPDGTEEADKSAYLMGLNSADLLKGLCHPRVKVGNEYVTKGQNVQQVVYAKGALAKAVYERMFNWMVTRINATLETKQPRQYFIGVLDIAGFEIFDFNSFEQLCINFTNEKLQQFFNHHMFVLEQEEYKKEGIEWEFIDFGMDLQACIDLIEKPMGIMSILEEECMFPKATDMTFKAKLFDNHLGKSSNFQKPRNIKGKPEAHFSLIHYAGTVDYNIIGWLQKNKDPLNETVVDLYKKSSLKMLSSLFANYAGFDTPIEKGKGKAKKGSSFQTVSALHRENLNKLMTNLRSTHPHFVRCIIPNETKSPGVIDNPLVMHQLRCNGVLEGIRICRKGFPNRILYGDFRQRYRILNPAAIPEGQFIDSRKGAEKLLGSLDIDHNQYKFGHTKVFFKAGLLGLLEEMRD
# bovine cardiac myosin S1, sequence (P85100 whole entry partner): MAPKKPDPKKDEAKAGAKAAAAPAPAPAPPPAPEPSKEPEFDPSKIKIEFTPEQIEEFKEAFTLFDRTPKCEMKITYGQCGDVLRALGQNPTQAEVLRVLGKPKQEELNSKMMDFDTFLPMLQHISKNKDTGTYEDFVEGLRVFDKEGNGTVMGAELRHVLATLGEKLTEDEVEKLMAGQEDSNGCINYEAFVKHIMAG
compound,measurement,setting,value
CC(C)n1c(=O)cc(N[C@@H](C)c2ccccc2)[nH]c1=O [Mavacamten],IC50,[1],~1000 nM
same,effect on the rate of the fast DRX phase,bovine cardiac myosin S1,no effect
same,kslow,"bovine cardiac myosin S1; 2 μmol L^-1 Mavacamten or 20 μmol L^-1 F10, control 0.0058 ± 0.0010",0.0035 ± 0.0002 s⁻¹
same,kfast,bovine cardiac myosin S1; [2],0.009858 s⁻¹ and 0.01039 s⁻¹ and 0.07197 s⁻¹ and 0.03575 s⁻¹ and 0.01101 s⁻¹ and 0.01169 s⁻¹
same,kslow,bovine cardiac myosin S1; [2],0.00364 s⁻¹ and 0.002861 s⁻¹ and 0.004023 s⁻¹ and 0.004095 s⁻¹ and 0.003004 s⁻¹ and 0.003638 s⁻¹
same,slow phase,bovine cardiac myosin S1; [2],82.01% and 63.89% and 87.3% and 56.77% and 56.99% and 79.26%
same,"Representative Traces, normalised fluorescence",bovine cardiac myosin S1; t 396 s,0.2925
same,"Representative Traces, normalised fluorescence",bovine cardiac myosin S1; t 397 s,0.3426
same,"Representative Traces, normalised fluorescence",bovine cardiac myosin S1; t 398 s,0.3062
same,"Representative Traces, normalised fluorescence",bovine cardiac myosin S1; t 399 s,0.3254
same,"Representative Traces, normalised fluorescence",bovine cardiac myosin S1; t 400 s,0.3408
same,"Representative Traces, normalised fluorescence",bovine cardiac myosin S1; t 401 s,0.3177
same,"Representative Traces, normalised fluorescence",bovine cardiac myosin S1; t 402 s,0.2999
same,"Representative Traces, normalised fluorescence",bovine cardiac myosin S1; t 403 s,0.3192
same,"Representative Traces, normalised fluorescence",bovine cardiac myosin S1; t 404 s,0.3277
same,"Representative Traces, normalised fluorescence",bovine cardiac myosin S1; t 405 s,0.3461
same,"Representative Traces, normalised fluorescence",bovine cardiac myosin S1; t 406 s,0.3076
same,"Representative Traces, normalised fluorescence",bovine cardiac myosin S1; t 407 s,0.3064
same,"Representative Traces, normalised fluorescence",bovine cardiac myosin S1; t 408 s,0.3235
same,"Representative Traces, normalised fluorescence",bovine cardiac myosin S1; t 409 s,0.3324
same,"Representative Traces, normalised fluorescence",bovine cardiac myosin S1; t 411 s,0.3126
same,"Representative Traces, normalised fluorescence",bovine cardiac myosin S1; t 412 s,0.2865
same,"Representative Traces, normalised fluorescence",bovine cardiac myosin S1; t 413 s,0.2993
same,"Representative Traces, normalised fluorescence",bovine cardiac myosin S1; t 414 s,0.3256
same,"Representative Traces, normalised fluorescence",bovine cardiac myosin S1; t 415 s,0.2791
same,"Representative Traces, normalised fluorescence",bovine cardiac myosin S1; t 416 s,0.3071
same,"Representative Traces, normalised fluorescence",bovine cardiac myosin S1; t 417 s,0.3285
same,"Representative Traces, normalised fluorescence",bovine cardiac myosin S1; t 418 s,0.3567
same,"Representative Traces, normalised fluorescence",bovine cardiac myosin S1; t 419 s,0.2951
same,"Representative Traces, normalised fluorescence",bovine cardiac myosin S1; t 420 s,0.2958
same,"Representative Traces, normalised fluorescence",bovine cardiac myosin S1; t 421 s,0.2771
same,"Representative Traces, normalised fluorescence",bovine cardiac myosin S1; t 422 s,0.3283
same,"Representative Traces, normalised fluorescence",bovine cardiac myosin S1; t 423 s,0.3329
same,"Representative Traces, normalised fluorescence",bovine cardiac myosin S1; t 424 s,0.3402
same,"Representative Traces, normalised fluorescence",bovine cardiac myosin S1; t 425 s,0.3675
same,"Representative Traces, normalised fluorescence",bovine cardiac myosin S1; t 426 s,0.3241
same,"Representative Traces, normalised fluorescence",bovine cardiac myosin S1; t 427 s,0.3018
same,"Representative Traces, normalised fluorescence",bovine cardiac myosin S1; t 429 s,0.3105
same,"Representative Traces, normalised fluorescence",bovine cardiac myosin S1; t 430 s,0.2835
same,"Representative Traces, normalised fluorescence",bovine cardiac myosin S1; t 431 s,0.3652
same,"Representative Traces, normalised fluorescence",bovine cardiac myosin S1; t 432 s,0.276
same,"Representative Traces, normalised fluorescence",bovine cardiac myosin S1; t 433 s,0.3282
same,"Representative Traces, normalised fluorescence",bovine cardiac myosin S1; t 434 s,0.3046
same,"Representative Traces, normalised fluorescence",bovine cardiac myosin S1; t 436 s,0.327
same,"Representative Traces, normalised fluorescence",bovine cardiac myosin S1; t 438 s,0.2936
same,"Representative Traces, normalised fluorescence",bovine cardiac myosin S1; t 439 s,0.2402
same,"Representative Traces, normalised fluorescence",bovine cardiac myosin S1; t 440 s,0.312
same,"Representative Traces, normalised fluorescence",bovine cardiac myosin S1; t 442 s,0.3011
same,"Representative Traces, normalised fluorescence",bovine cardiac myosin S1; t 443 s,0.3298
same,"Representative Traces, normalised fluorescence",bovine cardiac myosin S1; t 444 s,0.251
same,"Representative Traces, normalised fluorescence",bovine cardiac myosin S1; t 445 s,0.2991
same,"Representative Traces, normalised fluorescence",bovine cardiac myosin S1; t 448 s,0.3473
same,"Representative Traces, normalised fluorescence",bovine cardiac myosin S1; t 449 s,0.3057
same,"Representative Traces, normalised fluorescence",bovine cardiac myosin S1; t 450 s,0.2886
same,"Representative Traces, normalised fluorescence",bovine cardiac myosin S1; t 451 s,0.2859
same,"Representative Traces, normalised fluorescence",bovine cardiac myosin S1; t 452 s,0.29
same,"Representative Traces, normalised fluorescence",bovine cardiac myosin S1; t 453 s,0.2756
same,"Representative Traces, normalised fluorescence",bovine cardiac myosin S1; t 454 s,0.2575
same,"Representative Traces, normalised fluorescence",bovine cardiac myosin S1; t 455 s,0.3029
same,"Representative Traces, normalised fluorescence",bovine cardiac myosin S1; t 457 s,0.3415
same,"Representative Traces, normalised fluorescence",bovine cardiac myosin S1; t 458 s,0.2853
same,"Representative Traces, normalised fluorescence",bovine cardiac myosin S1; t 459 s,0.3237
same,"Representative Traces, normalised fluorescence",bovine cardiac myosin S1; t 460 s,0.3029
same,"Representative Traces, normalised fluorescence",bovine cardiac myosin S1; t 461 s,0.3217
same,"Representative Traces, normalised fluorescence",bovine cardiac myosin S1; t 462 s,0.3036
same,"Representative Traces, normalised fluorescence",bovine cardiac myosin S1; t 463 s,0.347
same,"Representative Traces, normalised fluorescence",bovine cardiac myosin S1; t 464 s,0.2897
same,"Representative Traces, normalised fluorescence",bovine cardiac myosin S1; t 465 s,0.2531
same,"Representative Traces, normalised fluorescence",bovine cardiac myosin S1; t 466 s,0.2878
same,"Representative Traces, normalised fluorescence",bovine cardiac myosin S1; t 467 s,0.2939
same,"Representative Traces, normalised fluorescence",bovine cardiac myosin S1; t 468 s,0.2524
same,"Representative Traces, normalised fluorescence",bovine cardiac myosin S1; t 469 s,0.272
same,"Representative Traces, normalised fluorescence",bovine cardiac myosin S1; t 470 s,0.2865
same,"Representative Traces, normalised fluorescence",bovine cardiac myosin S1; t 471 s,0.2593
same,"Representative Traces, normalised fluorescence",bovine cardiac myosin S1; t 472 s,0.2417
same,"Representative Traces, normalised fluorescence",bovine cardiac myosin S1; t 473 s,0.3026
same,"Representative Traces, normalised fluorescence",bovine cardiac myosin S1; t 474 s,0.305
same,"Representative Traces, normalised fluorescence",bovine cardiac myosin S1; t 475 s,0.2893
same,"Representative Traces, normalised fluorescence",bovine cardiac myosin S1; t 476 s,0.2207
same,"Representative Traces, normalised fluorescence",bovine cardiac myosin S1; t 477 s,0.2579
same,"Representative Traces, normalised fluorescence",bovine cardiac myosin S1; t 479 s,0.2507
same,"Representative Traces, normalised fluorescence",bovine cardiac myosin S1; t 481 s,0.3039
same,"Representative Traces, normalised fluorescence",bovine cardiac myosin S1; t 482 s,0.2976
same,"Representative Traces, normalised fluorescence",bovine cardiac myosin S1; t 483 s,0.3557
same,"Representative Traces, normalised fluorescence",bovine cardiac myosin S1; t 484 s,0.2911
same,"Representative Traces, normalised fluorescence",bovine cardiac myosin S1; t 485 s,0.3282
same,"Representative Traces, normalised fluorescence",bovine cardiac myosin S1; t 486 s,0.3063
same,"Representative Traces, normalised fluorescence",bovine cardiac myosin S1; t 487 s,0.301
same,"Representative Traces, normalised fluorescence",bovine cardiac myosin S1; t 489 s,0.3448
same,"Representative Traces, normalised fluorescence",bovine cardiac myosin S1; t 490 s,0.2903
same,"Representative Traces, normalised fluorescence",bovine cardiac myosin S1; t 491 s,0.2724
same,"Representative Traces, normalised fluorescence",bovine cardiac myosin S1; t 492 s,0.2681
same,"Representative Traces, normalised fluorescence",bovine cardiac myosin S1; t 493 s,0.2418
same,"Representative Traces, normalised fluorescence",bovine cardiac myosin S1; t 494 s,0.2422
same,"Representative Traces, normalised fluorescence",bovine cardiac myosin S1; t 495 s,0.2809
same,"Representative Traces, normalised fluorescence",bovine cardiac myosin S1; t 496 s,0.2322
same,"Representative Traces, normalised fluorescence",bovine cardiac myosin S1; t 498 s,0.212
same,"Representative Traces, normalised fluorescence",bovine cardiac myosin S1; t 499 s,0.2038
same,"Representative Traces, normalised fluorescence",bovine cardiac myosin S1; t 500 s,0.275
same,"Representative Traces, normalised fluorescence",bovine cardiac myosin S1; t 501 s,0.2793
same,"Representative Traces, normalised fluorescence",bovine cardiac myosin S1; t 502 s,0.2398
same,"Representative Traces, normalised fluorescence",bovine cardiac myosin S1; t 503 s,0.2758
same,"Representative Traces, normalised fluorescence",bovine cardiac myosin S1; t 504 s,0.2833
same,"Representative Traces, normalised fluorescence",bovine cardiac myosin S1; t 505 s,0.2324
same,"Representative Traces, normalised fluorescence",bovine cardiac myosin S1; t 506 s,0.2749
same,"Representative Traces, normalised fluorescence",bovine cardiac myosin S1; t 507 s,0.3022
same,"Representative Traces (mant-ATP chase, normalised signal)",bovine cardiac myosin S1; t = 796 s,0.1415
same,"Representative Traces (mant-ATP chase, normalised signal)",bovine cardiac myosin S1; t = 797 s,0.08266
